This note sets out measurements from ChEMBL document CHEMBL1201862, “PubChem BioAssay data set” (2004).

Common to all, as to experiment: NCI-60 cell line screen, 48 h
The subject of assay [1] is A498.
Assay [2] concerns NCI-H23.
Assay [3] concerns SK-OV-3.
For assay [4], the system named is SK-MEL-5.
Assay [5] concerns K562.
The test system of assay [6] is NCI/ADR-RES.
Assay [7] deals with SR.
For assay [8], the system named is CAKI-1.
Assay [9] relates to NCI-H226.
In assay [10] the test system is IGROV-1.
The subject of assay [11] is RPMI-8226.
In assay [12] the test system is EKVX.
The subject of assay [13] is UACC-257.
The subject of assay [14] is SK-MEL-2.
For assay [15], the system named is MDA-MB-435.
Assay [16] deals with ACHN.
Assay [17] has as its system T47D.
The subject of assay [18] is PC-3.
Assay [19] relates to MCF7.
The subject of assay [20] is MDA-N.

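Grown in 96-well plates, cells were treated for 48 hours with each compound at five concentrations. Insufficient inhibition: endpoint recorded as highest concentration tested. Here, GI50 denotes the concentration required for 50% inhibition of growth.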 Active and inactive are the calls of the source. Rule as the data show it: active = GI50 up to about 1.1 µM and inactive = higher.

Consider `O=C(O)CSc1ccn(Cc2ccccc2)c1`, for which the GI50 in assay [1], in [2], in assay [3], in [4], in [5] and in assay [6] was > 100 µM (inactive) throughout. Also, the GI50 in [7], in assay [8], in [9], in assay [10], in assay [11] and in assay [12] was > 100 µM (inactive) throughout. In addition, the GI50 in [13], in [14], in [15], in assay [16], in assay [17] and in assay [18] was > 100 µM (inactive) in each case. Further, the GI50 in [19] and in assay [20] was > 100 µM (inactive) in each case.
Take `CCOC(=O)/C=C(\C(=O)OCC)n1ccc(=O)n(Cc2cn(COCCOC(C)=O)nn2)c1=O`: the GI50 in assay [1] is > 54.3 µM (inactive); in [2] it was 17.7 µM (inactive); in assay [3] it was > 100 µM (inactive); in assay [4] it was 21.5 µM (inactive); in assay [5], 24 µM (inactive); in assay [6], 20.3 µM (inactive). Also, the GI50 in assay [7] was 21 µM (inactive); in assay [8], 8.67 µM (inactive); in assay [9] it was 7.67 µM (inactive); in assay [10], 21.1 µM (inactive); in [11] it was 22.8 µM (inactive); in assay [12], 19.9 µM (inactive). For the same compound, the GI50 in assay [13] is 22 µM (inactive); in assay [14] it was 20.8 µM (inactive); in assay [15], 18.7 µM (inactive); in assay [16], 7.05 µM (inactive); in assay [17] it was 24.3 µM (inactive); in assay [18] it was 20.3 µM (inactive). Moreover, the GI50 in [19] was 17.1 µM (inactive); in [20], 35.2 µM (inactive).
`COC(=O)CN1c2nc(C#N)c(C#N)nc2N(CC(=O)OC)c2nc(C#N)c(C#N)nc21`: the GI50 in assay [1] is 15.3 µM (inactive); in [2], 2.99 µM (inactive); in [3], 15.3 µM (inactive); in assay [4], 5.4 µM (inactive); in assay [5] it was 1.51 µM (inactive); in assay [6], 18.7 µM (inactive). The GI50 in [7] is 2 µM (inactive); in assay [8] it was 0.54 µM (active); in assay [9], 38.8 µM (inactive); in [10] it was 3.46 µM (inactive); in [11], 1.87 µM (inactive); in assay [12], 4.47 µM (inactive). Further, the GI50 was 2.72 µM (inactive) in assay [13]; 8.81 µM (inactive) in assay [14]; 2.64 µM (inactive) in assay [15]; 1.59 µM (inactive) in [16]; 2.35 µM (inactive) in assay [17]; 4.15 µM (inactive) in [18]. The GI50 in assay [19] is 3.13 µM (inactive); in assay [20], 3.53 µM (inactive).
Consider `CC(=O)CC(=O)N1CCOC1=O`, for which the GI50 in assay [1], in [2], in [3], in assay [4], in assay [5] and in assay [6] was > 10 µM (inactive) each time. The GI50 in [7], in [8], in [9], in assay [10], in assay [11] and in assay [12] was > 10 µM (inactive) each time. In addition, the GI50 in assay [13], in assay [14], in [15], in assay [16], in [17] and in assay [18] was > 10 µM (inactive) each time. Moreover, the GI50 in assay [19] and in assay [20] was > 10 µM (inactive) in each case.
With `Ic1ccc2c(c1)N(c1ccccc1)c1cc([N-]c3ccc4nc5ccc(I)cc5[n+](-c5ccccc5)c4c3)ccc1N2`, the GI50 was > 100 µM (inactive) in [1]; 41.3 µM (inactive) in [2]; > 100 µM (inactive) in assay [3]; 33.4 µM (inactive) in assay [4]; 35 µM (inactive) in assay [5]; > 100 µM (inactive) in [6]. For the same compound, the GI50 was 32.6 µM (inactive) in assay [7]; > 100 µM (inactive) in [8]; > 100 µM (inactive) in assay [9]; 43.8 µM (inactive) in [10]; 32.1 µM (inactive) in [11]; 32.2 µM (inactive) in [12]. Besides, the GI50 in [13] was 31.3 µM (inactive); in assay [14], > 100 µM (inactive); in [15] it was 31.4 µM (inactive); in assay [16] it was > 100 µM (inactive); in assay [17], 61.7 µM (inactive); in assay [18], 55.7 µM (inactive). Besides, the GI50 was 26.4 µM (inactive) in assay [19] and 37.6 µM (inactive) in assay [20].
As for `CCOc1ccc(/N=C/c2ccnc3ccccc23)cc1`, the GI50 in assay [1] was > 100 µM (inactive); in assay [2] it was 49.3 µM (inactive); in [3], 67.8 µM (inactive); in assay [4] it was 8.15 µM (inactive); in assay [5], 3.11 µM (inactive); in assay [6], 35.9 µM (inactive). The GI50 was 0.752 µM (active) in assay [7]; 74.3 µM (inactive) in assay [8]; 73.6 µM (inactive) in [9]; 43 µM (inactive) in assay [10]; 6.53 µM (inactive) in [11]; > 93.1 µM (inactive) in assay [12]. Besides, the GI50 in assay [13] was 98.6 µM (inactive); in assay [14], 61.8 µM (inactive); in assay [15] it was 42.7 µM (inactive); in assay [16], 58.2 µM (inactive); in assay [17] it was 47.9 µM (inactive); in assay [18], 31.5 µM (inactive). The GI50 in assay [19] was 5.98 µM (inactive); in assay [20], 30.1 µM (inactive).
Take `O=C(Cc1ccc2ccccc2c1)NCc1ccc(C(=O)NCCc2ccccc2)cc1`: the GI50 in assay [1], in [2], in [3], in assay [4], in assay [5] and in [6] was > 100 µM (inactive) each time. For the same compound, the GI50 in assay [7], in [8], in assay [9], in assay [10], in assay [11] and in assay [12] was > 100 µM (inactive) each time. For the same compound, the GI50 in assay [13], in assay [14], in assay [15], in [16], in assay [17] and in assay [18] was > 100 µM (inactive) each time. Moreover, the GI50 in [19] and in assay [20] was > 100 µM (inactive) in each case.
In the case of `C[Si](C)(C)C1=C([Si](C)(C)C)C(Cl)(Cl)C1=O`, the GI50 in [1] is 15.5 µM (inactive); in assay [2], 4.26 µM (inactive); in assay [3], 22.6 µM (inactive); in assay [4] it was 1.98 µM (inactive); in assay [5], 0.879 µM (active); in assay [6], 3.42 µM (inactive). Besides, the GI50 was 1.93 µM (inactive) in [7]; 2.36 µM (inactive) in assay [8]; 3.13 µM (inactive) in [9]; 3.73 µM (inactive) in assay [10]; 0.8 µM (active) in assay [11]; 4.72 µM (inactive) in assay [12]. Besides, the GI50 in assay [13] is 2.05 µM (inactive); in assay [14] it was 9.12 µM (inactive); in assay [15], 2 µM (inactive); in assay [16], 1.74 µM (inactive); in [17] it was 1.74 µM (inactive); in assay [18], 3.76 µM (inactive). For the same compound, the figures for the GI50 in [19] and in [20] were 6.15 µM (inactive) and 1.99 µM (inactive), respectively.
With `CC1(C)O[C@H]2OC3CCC(=O)CC3(O)[C@H]2O1` (stereo not given in full), the GI50 in assay [1], in [2], in assay [3], in assay [4], in assay [5] and in assay [6] was > 100 µM (inactive) each time. The GI50 in assay [7], in assay [8], in assay [9], in [10], in assay [11] and in assay [12] was > 100 µM (inactive) in each case. Moreover, the GI50 in assay [13], in [14], in assay [15], in [16], in assay [17] and in assay [18] was > 100 µM (inactive) in each case. Also, the GI50 in [19] and in [20] was > 100 µM (inactive) throughout.
As to `NC(=O)C1CCCN1C(=O)N(CCCl)N=O` (stereo not given), the GI50 in assay [1], in [2], in [3], in assay [4], in assay [5] and in assay [6] was > 100 µM (inactive) each time. In addition, the GI50 in assay [7], in assay [8], in assay [9], in assay [10], in [11] and in assay [12] was > 100 µM (inactive) throughout. Further, the GI50 in [13], in assay [14], in assay [15], in assay [16], in assay [17] and in assay [18] was > 100 µM (inactive) in each case. The GI50 in assay [19] and in assay [20] was > 100 µM (inactive) throughout.
